Test results reported in patent publication US20050245563A1 (Millennium Pharmaceuticals, Inc., priority 2003, published 2005).

Biological target: T1, human Chk1 (GST-Chk1) (Homo sapiens, UniProt O14757)
T1 construct: made in house; host or cells: insect cells (baculovirus, Bac-to-Bac)
T1 sequence (O14757 1-476): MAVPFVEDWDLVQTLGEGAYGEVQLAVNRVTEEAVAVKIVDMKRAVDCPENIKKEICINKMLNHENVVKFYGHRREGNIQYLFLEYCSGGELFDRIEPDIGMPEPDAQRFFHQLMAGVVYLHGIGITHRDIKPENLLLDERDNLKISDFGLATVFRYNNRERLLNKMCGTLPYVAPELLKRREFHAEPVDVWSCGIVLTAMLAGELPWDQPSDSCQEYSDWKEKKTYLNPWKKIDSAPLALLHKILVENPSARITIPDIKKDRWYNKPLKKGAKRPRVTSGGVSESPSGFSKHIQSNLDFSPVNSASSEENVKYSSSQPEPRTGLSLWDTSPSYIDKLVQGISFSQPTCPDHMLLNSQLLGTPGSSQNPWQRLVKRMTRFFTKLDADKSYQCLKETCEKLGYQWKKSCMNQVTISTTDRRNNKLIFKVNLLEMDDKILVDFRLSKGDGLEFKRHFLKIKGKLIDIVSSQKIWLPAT
Assay: Chk1 DELFIA kinase assay (2 nM GST-Chk1, 600 μM ATP)
Assay type: biochemical
Conditions: Biotin-GLYRSPSMPEN-amide substrate
Procedure: Recombinant human Chk1 was expressed as a fusion protein with glutathione S-transferase at the amino-terminus (GST-Chk1) using standard baculovirus vectors and (Bac-to-Bac®) insect cell expression system purchased from GIBCO™ Invitrogen. Recombinant protein expressed in insect cells was purified using glutathione sepharose (Amersham Biotech) using standard procedures described by the manufacturer.
Chk1 DELFIA® Kinase Assay:
Assays (25 μL) utilized 2 nM GST-Chk1 containing 10 mM Tris, pH 7.5, 20% glycerol, 50 mM sodium chloride (NaCl), 0.01% Surfact-Amps® 20, 1 μM peptide stubstrate (Biotin-GLYRSPSMPEN-amide) (SEQ ID NO: 3), 01.% BSA, 2 mM DTT, 4% DMSO, 600 μM ATP, 10 MM MgCl2 and reacted for 50 minutes at room temperature. Reactions were terminated with 100 μL of Stop buffer containing 1% BSA, 10 mM Tris, pH 8.0, 150 mM NaCl, 100 mM EDTA. Stopped reactions (100 μL) were transferred to 96 well NeutrAvidin plates (Pierce) to capture the biotin-peptide substrate during a 30 minute room temperature incubation. Wells were washed and reacted with 100 μL PerkinElmer Wallac Assay Buffer containing 21.5 ng/ml anti-phospho-Ser216-Cdc25c rabbit polyclonal antibody from Cell Signaling Technology (Beverly, Mass.) and 292 ng/ml europium labeled anti-rabbit-IgG for 1 hour at room temperature. Wells were washed and europium released from the bound antibody by addition of Enhancement Solution (100 μL) (PerkinElmer Wallac) and detected using a Perkin Elmer Wallac Envison™ 2100 multilabel reader using standard manufacturer settings.

Row | IC50 | Compound
1 | < 1000 nM | Cc1[nH]nc2c1c(=O)n(CCCN)c1ccc(C#Cc3ccncc3)cc21 [Example 279, 5-(3-Amino-propyl)-3-methyl-8-pyridin-4-ylethylynyl-2,5-dihydro-pyrazolo[4,3-c]quinolin-4-one]
2 | < 1000 nM | CNCC(O)Cn1c(=O)c2c(C)[nH]nc2c2cc(Cl)ccc21 (centres unmarked) [Example 247, 8-Chloro-5-(2-hydroxy-3-methylamino-propyl)-3-methyl-2,5-dihydro-pyrazolo[4,3-c]quinolin-4-one]
3 | < 1000 nM | COC(=O)CCc1ccc2c(c1)c1n[nH]c(C)c1c(=O)n2CCCN [Compound 268, 3-[5-(3-Amino-propyl)-3-methyl-4-oxo-4,5-dihydro-2H-pyrazolo[4,3-c]quinolin-8-yl]-propionic acid methyl ester]
4 | < 1000 nM | Cc1[nH]nc2c1c(=O)n(CCCN)c1ccc(NC(=O)[C@H]3CCCN3)cc21 [Example 263, Pyrrolidine-2R-carboxylic acid [5-(3-amino-propyl)-3-methyl-4-oxo-4,5-dihydro-2H-pyrazolo[4,3-c]quinolin-8-yl]-amide]
5 | < 1000 nM | Cc1[nH]nc2c1c(=O)n(CCCN)c1ccc(C#CCN3CCN(C)CC3)cc21 [Example 288, 5-(3-Amino-propyl)-3-methyl-8-[3-(4-methyl-piperazin-1-yl)-prop-1-ynyl]-2,5-dihydro-pyrazolo[4,3-c]quinolin-4-one]
6 | < 1000 nM | COCCc1[nH]nc2c1c(=O)n(CCCN)c1ccc(F)cc21 [Compound 205, 5-(3-Amino-propyl)-8-fluoro-3-(2-methoxy-ethyl)-2,5-dihydro-pyrazolo[4,3-c]quinolin-4-one]
7 | < 1000 nM | Cc1[nH]nc2c1c(=O)n(CCCN)c1c(N)cc(Cl)cc21 [Compound 348, 6-Amino-5-(3-amino-propyl)-8-chloro-3-methyl-2,5-dihydro-pyrazolo[4,3-c]quinolin4-one]
8 | < 1000 nM | Cc1[nH]nc2c1c(=O)n(CC1CNC1)c1ccc(Cl)cc21 [Example 228, 5-Azetidin-3-ylmethyl-8-chloro-3-methyl-2,5-dihydro-pyrazolo[4,3-c]quinolin-4-one]
9 | < 1000 nM | C#Cc1ccc2c(c1)c1n[nH]c(CC)c1c(=O)n2CCCNC [Example 304, 8-Ethynyl-3-ethyl-5-(3-methylamino-propyl)-2,5-dihydro-pyrazolo[4,3-c]quinolin-4-one]
10 | < 1000 nM | C#Cc1ccc2c(c1)c1n[nH]c(C)c1c(=O)n2CCCNC [Example 293, 8-Ethynyl-3-methyl-5-(3-methylamino-propyl)-2,5-dihydro-pyrazolo[4,3-c]quinolin-4-one]

Further lines, the compound ahead of its results:

Row | Compound | IC50
11 | Cc1[nH]nc2c1c(=O)n(CCCN)c1ccc(C#CCN3CCOCC3)cc21 [Example 289, 5-(3-Amino-propyl)-3-methyl-8-(3-morpholin-4-yl-prop-1-ynyl]-2,5-dihydro-pyrazolo[4,3-c]quinolin-4-one] | < 1000 nM
12 | Cc1[nH]nc2c1c(=O)n(CCCN)c1ccc(OCCCN)cc21 [Example 255, 8-(3-Amino-propoxy)-5-(3-amino-propyl)-3-methyl-2,5-dihydro-pyrazolo[4,3-c]quinolin-4-one] | < 1000 nM
13 | Cc1[nH]nc2c1c(=O)n(CCCN)c1c(Br)cc(Cl)cc21 [Compound 349, 5-(3-Amino-propyl)-6-bromo-8-chloro-3-methyl 2,5-dihydro-pyrazolo[4,3-c]quinolin-4-one] | < 1000 nM
14 | Cc1[nH]nc2c1c(=O)n(CCCN)c1ccc(C#CC(C)O)cc21 (centres unmarked) [Example 282, 5-(3-Amino-propyl)-8-(3-hydroxy-but-1-ynyl)-3-methyl 2,5-dihydro-pyrazolo[4,3-c]quinolin-4-one] | < 1000 nM
15 | Cc1[nH]nc2c1c(=O)n(CCCN)c1ccc(C#CCO)cc21 [Example 272, 5-(3-Amino-propyl)-8-(3-hydroxy-prop-1-ynyl)-3-methyl-2,5-dihydro-pyrazolo[4,3-c]quinolin-4-one] | < 1000 nM
16 | CNCC(O)CCn1c(=O)c2c(C)[nH]nc2c2cc(Cl)ccc21 (centres unmarked) [Example 249, 8-Chloro-5-(3-hydroxy-4-methylamino-butyl)-3-methyl-2,5-dihydro-pyrazolo[4,3-c]quinolin-4-one] | < 1000 nM
17 | Cc1[nH]nc2c1c(=O)n(CCCN)c1ccc(-c3ccc(C#N)cc3)cc21 [Example 306, 4-[5-(3-Amino-propyl)-3-methyl-4-oxo-4,5-dihydro-2H-pyrazolo[4,3-c]quinolin-8-yl]-benzonitrile] | < 1000 nM
18 | CC(=O)N1CCN(CC#Cc2ccc3c(c2)c2n[nH]c(C)c2c(=O)n3CCCN)CC1 [Example 287, 8-[3-(4-Acetyl-piperazin-1-yl)-prop-1-ynyl]-5-(3-amino-propyl)-3-methyl-2,5-dihydro-pyrazolo[4,3-c]quinolin-4-one] | < 1000 nM
19 | COCCc1[nH]nc2c1c(=O)n(CCCN)c1ccc(Cl)cc21 [Compound 206, 5-(3-Amino-propyl)-8-chloro-3-(2-methoxyethyl)-2,5-dihydro-pyrazolo[4,3-c]quinolin-4-one] | < 1000 nM
20 | Cc1[nH]nc2c1c(=O)n(C[C@@H](C)CN)c1ccc(Cl)cc21 [Example 220, 5-(3-Amino-2S-methyl-propyl)-8-chloro-3-methyl-2,5-dihydro-pyrazolo[4,3-c]quinolin-4-one] | < 1000 nM
21 | Cc1[nH]nc2c1c(=O)n(C[C@@H]1CCCNC1)c1ccc(Cl)cc21 [Example 224, 8-Chloro-3-methyl-5R-piperidin-3-ylmethyl-2,5-dihydro-pyrazolo[4,3-c]quinolin-4-one] | < 1000 nM
22 | Cc1[nH]nc2c1c(=O)n(CCCO)c1ccc(Cl)cc21 [Compound 209, 8-Chloro-5-(3-hydroxy-propyl)-3-methyl-2,5-dihydro-pyrazolo[4,3-c]quinolin-4-one] | < 1000 nM
23 | Cc1[nH]nc2c1c(=O)n(CCCN)c1ccc(C#Cc3ccccn3)cc21 [Example 278, 5-(3-Amino-propyl)-3-methyl-8-pyridin-2-ylethylynyl-2,5-dihydro-pyrazolo[4,3-c]quinolin-4-one] | < 1000 nM
24 | Cc1[nH]nc2c1c(=O)n(CCCN)c1ccc(C#CCn3ccnc3)cc21 [Example 290, 5-(3-Amino-propyl)-8-(3-imidazol-1-yl-prop-1-ynyl]-3-methyl-2,5-dihydro-pyrazolo[4,3-c]quinolin-4-one] | < 1000 nM
25 | COCCc1[nH]nc2c1c(=O)n(C[C@@H]1CCCNC1)c1ccc(Cl)cc21 [Example 226, 8-Chloro-3-(2-methoxy-ethyl)-5R-piperidin-3-ylmethyl-2,5-dihydro-pyrazolo[4,3-c]quinolin-4-one] | < 1000 nM
26 | Cc1[nH]nc2c1c(=O)n(CCCNCc1cccs1)c1ccc(Cl)cc21 [Example 242, 8-Chloro-3-methyl-5-{3-[(thiophen-2-ylmethyl)-amino]-propyl}-2,5-dihydro-pyrazolo[4,3-c]quinolin-4-one] | < 1000 nM
27 | Cc1[nH]nc2c1c(=O)n(CCCN)c1cc(C(=O)NCCCCN(C)C)ccc21 [Example 338] | < 1000 nM
28 | Cc1[nH]nc2c1c(=O)n(CCCN)c1ccc(C#CCN3CCCCC3)cc21 [Example 286, 5-(3-Amino-propyl)-3-methyl-8-(3-piperidin-1-yl-prop-1-ynyl]-2,5-dihydro-pyrazolo[4,3-c]quinolin-4-one] | < 1000 nM
29 | Cc1[nH]nc2c1c(=O)n(CCC(C)N)c1ccc(Cl)cc21 (centres unmarked) [Compound 216, 5-(3-Amino-butyl)-8-chloro 3-methyl-2,5-dihydro-pyrazolo[4,3-c]quinolin-4-one] | < 1000 nM
